Laboratory results published in patent US11793816B2, “Methods for enhancing cytotoxic cancer therapy through inhibition of ATG4B” (Northwestern University, priority 2019, dated 2023).
Like-named read-outs stand apart in the source and are kept apart here.

Assays:
[1] = test system: intracranial PDX GBM39 tumor xenografts; experiment: Intracranial PDX GBM39 xenograft model (BLI, body weight, survival); conditions: monotherapy
Experimental: (A) Designs for Combination Therapy of Targeting Autophagy using NSC (150 mg/kg, Monday, Wednesday, and Friday), IR (2 Gy/day for 5 consecutive days), TMZ (100 mg/kg/day), RT+NSC, TMZ+NSC or RT+TMZ+NSC for PDX GBM39 model. (B) Body weight curves of different groups. Values represent the mean±SEM (n=8). *p<0.05, **p<0.01 compared to vehicle controls. (C) Relative changes in bioluminescent (BLI) signals of intracranial xenograft tumors with vehicle control or indicated treatment. n=8/group. *p<0.05, **p<0.01 compared to vehicle controls. Values represent the mean±SEM (n=8). *p<0.05, **p<0.01 compared to vehicle controls. (D) Representative bioluminescent images of mice-bearing intracranial xenografts with indicated treatments. NSC, IR, TMZ, and the indicated combinations. Treatments were started at day 7 post implantation. Mice were imaged after the last treatment. […] (E) Kaplan-Meier (left) and log-rank p value analyses (right) of mice bearing GSC 83 orthotopic xenografts with indicated treatments. […]
Athymic (Ncr nu/nu) mice at 6-8 week age were obtained from Taconic Farms. […] When Bioluminescent imaging (BLI) was detected in all animal, which were randomized into different treatment groups. […] Mice were monitored every day until the onset of neurological symptoms due to tumor burden. The tumor growth was monitored using the bioluminescent imaging (BLI) station (Caliper Life Sciences).

[2] = Pharmacokinetic studies in mice: NSC185058 in plasma, brain and liver by LC-MS/MS; format: in vivo; conditions: for Cmax / AUC / half-life: plasma; for Cmax: read-out: average maximum plasma concentration (Cmax); for AUC: read-out: Area under the curve (AUC) for the plasma; for half-life: read-out: elimination half-life (converted)
Experimental: FIG. 1. NSC185058 (NSC) effectively distributes to the plasma, the brain, and the liver with minimal toxicity in mice. (A) to (C) Mice were dosed with peanut oil vehicle or ATG4B antagonists NSC185058 at doses of 10 or 50 mg/kg body weight. Plasma, the brain, and the liver tissues were collected at the indicated time points. (A) Total concentrations of the NSC compound in plasma were measured by LC-MS/MS. The PK parameter of NSC in plasma was determined. (B) NSC levels in plasma were determined form 5 min to 24 hr post dosing. The chemical structure of NSC was shown. (C) NSC levels were determined in the plasma, the brain, and the liver tissues at 0.5 and 8 hr post dosing. (D) Hematoxylin and eosin stained section s of indicated organs that were treated with NSC (150 mg/kg body weight) or vehicle on Monday, Wednesday, and Friday for three weeks. Scale bars, 50 μm. n=3 mice/group/time point.
Athymic (Ncr nu/nu) mice were injected intraperitoneal (i.p.) with peanut oil vehicle or ATG4B antagonists NSC185058 (50 mg/kg body weight for high does group and 10 mg/kg body weight for low does group). Mouse blood was withdrawn by terminal cardiac puncture while the animals were anesthetized with isoflurane. Blood samples were collected in tubes containing K2EDTA as the anticoagulant at 5, 15, and 30 minutes; 1, 2, 4, 8, and 24 hours post-dose for treatment groups. Mouse brain and liver tissue were also collected from the study animals at 1, 2, 4, and 8 hours post-dose. Control group animals were sacrificed at 24 hours after vehicle injection. Blood samples were centrifuged within one hour of collection and plasma was frozen at approximately −80° C. until analyzed at for concentration of the drug. Total concentrations of the NSC185058 compound in the plasma, the liver, and the brain were measured by LC-MS/MS at Illinois Institute of Technology Research Institute.
The NSC was administered at the dose of 10 or 50 mg/kg body weight in group of three mice. At the indicated time points spanning a 24 hrs period ([…], 0.5, 1, 2, 4, 8, and 24 hour), the plasma, the brain, and the liver tissues were collected. Plasmid and extracts from the brain and the liver were analyzed by LC-MS/MS using method developed at the Illinois Institute of Technology Research Institute (IITRI). […] Plasma exposure appears to increase beyond the hinge in dose for the dosing range tested. The elimination half-life was 2 and 4 for the 10 and 50 mg/kg dose, respectively. […] To examine whether NSC is tolerated in mouse, we investigated the effect induced by NSC in mouse behavior or by pathologic analysis of vital organs including the brain, the heart, the liver, the lung, the kidney, and the spleen. Mice underwent treatments on Monday, Wednesday, and Friday for three week with either peanut oil (vehicle) or NSC (150 mg/kg body weight) in peanut oil. […] Animal tissues were collected one week after the last dosing and subject for hematoxylin and eosin staining.

[3] = athymic Ncr nu/nu, mouse, IP 10 mg/kg
[4] = athymic Ncr nu/nu, mouse, IP 50 mg/kg

Question: For `S=C(Nc1ccccn1)c1ccccn1` [NSC185058, N-pyridin-2-yl-pyridine-2-carbothioamide], which “survival analysis (growth-suppressive effects, FIG. 4E)” value [1] is on record?
Answer: The value was “not IR or NSC single treatment resulted in growth-suppressive effects”.

Question: And the blood-brain barrier penetration [2]?
Answer: The blood-brain barrier penetration was “excellent blood/brain barrier (BBB) penetration”.

Question: And the Cmax ([2]; athymic Ncr nu/nu, mouse, IP single dose 10 mg/kg)?
Answer: The Cmax was 2.6 µM.

Question: What about the Cmax ([2]; athymic Ncr nu/nu, mouse, IP single dose 50 mg/kg) of the same compound?
Answer: The Cmax was 33 µM.

Question: And the Kp ([2]; athymic Ncr nu/nu, mouse, IP, brain vs plasma, read-out: average brain tissue concentration relative to that in the plasma at the same time points)?
Answer: Its Kp is 0.4 to 1.

Question: What about the concentration at 0.5 h ([2]; athymic Ncr nu/nu, mouse, brain, 50 mg/kg, 0.5 hrs post IP dose, read-out: Average brain tissue concentration) of the same compound?
Answer: The concentration at 0.5 h was 12000 ng/g.

Question: What about the concentration at 8 h ([2]; athymic Ncr nu/nu, mouse, brain, 50 mg/kg, 8 hrs post IP dose, read-out: Average brain tissue concentration) of the same compound?
Answer: Its concentration at 8 h is 4100 ng/g.

Question: What about the AUC [2, 3] of the same compound?
Answer: The AUC was 2140 ng·h/mL.

Question: And the half-life [2, 3]?
Answer: Its half-life is 2 h.

Question: What about the AUC [2, 4] of the same compound?
Answer: Its AUC is 57200 ng·h/mL.

Question: And the half-life [2, 4]?
Answer: The half-life was 4 h.

Question: What about the blood-brain barrier penetration ([2]; listed as NSC) of the same compound?
Answer: The blood-brain barrier penetration was “penetrates the tumor blood-brain barrier at sufficient levels”.
